Data published in patent US20240228927A1, “MICROFLUIDIC PLATFORM FOR DETECTION OF LIVER INJURY” (Javelin Biotech, Inc., priority 2023, published 2024).
Where two headings read alike, the source gives them in different places.

Assays:
in vitro liver tissue = test: mitochondrial stress test: on-chip oxygen consumption rate (OCR) of liver tissue; type: cell-based, human; details: oligomycin 1 μM, FCCP 0.3 μM, rotenone 1 μM with antimycin A 0.5 μM, 30 min each; matured tissue on chip
Text: The microfluidic chip 100 and control system perform measurements of the oxygen consumption rate of in vitro liver tissue as a readout of mitochondrial function.
Oxygen sensing is achieved by combining a disposable oxygen sensor spot with an oxygen sensing meter. The meter provides an optical excitation signal to the sensor spot and measures the emitted light from the sensor spot. The light emitted by the sensor spot is influenced by a partial pressure of oxygen in fluid in contact with the sensor spot. Two sensor spots are placed in the primary flow path either side of the tissue culture area to measure the oxygen consumption of the tissue. The meters in the control module are placed such that they can measure the oxygen sensor values during normal operation.
The microfluidic chip 100 performs quantification of cellular respiration to assess mitochondrial function. […] To assess the sensitivity of the oxygen sensors 124a-b and on-chip OCR estimates, the microfluidic chip 100 performs a mitochondrial stress test. After cells are seeded on chips (e.g., 4 per treatment), tissue is matured (˜5-7 days), and basal OCR is established, oligomycin (1 μM & 30 min), which blocks proton translocation through complex V and represses ATP and OCR, are administered to the chips and OCR are assessed continuously. […] The oxygen sensors 124a-b read oxygen levels on the fluid path before and after the cell chamber. The inlet readout represents oxygenated media levels leaving the reoxygenation channel and the outlet readout reflects oxygen-depleted media due oxygen consumption of liver tissue. The continuous readouts are captured and recorded by the controller 114 of the microfluidic chip 100.

[1] = clinically observed, human plasma; cited from earlier work
liver = details: cited from earlier work
[2] = less toxic comparator of Table 1

| Compound | DILI presentation (Liver toxicant) (liver; liver toxicant of Table 1) | Mechanism of toxicity (liver; liver toxicant of Table 1) | other results |
| --- | --- | --- | --- |
| C=C(C)[C@H]1Cc2c(ccc3c2O[C@@H]2COc4cc(OC)c(OC)cc4[C@@H]2C3=O)O1 [Rotenone, rotenone] |  |  | OCR (oxygen consumption rate) (in vitro liver tissue): complete reduction in OCR |
| O=C(O)Cc1ccccc1Nc1c(Cl)cccc1Cl [Diclofenac] |  |  | Cmax [1]: 4 to 10 µM |
| COC(c1ccccc1)(c1ccccc1)[C@H](Oc1nc(C)cc(C)n1)C(=O)O [Ambrisentan] |  |  | DILI presentation (Less toxic comparator) (liver; [2]): Minimal |
| CC[C@H]1/C=C/C=C/C[C@@H](C)[C@H](O)[C@@](C)(O)C(=O)[C@@H](C)[C@H](O)[C@@H](C)C(=O)[C@@H](C)[C@H](O)[C@@H](C)/C=C/C(=O)O[C@@H]2[C@H](C)[C@H](CC1)O[C@]1(CC[C@H](C)[C@H](C[C@@H](C)O)O1)[C@H]2C [oligomycin] |  |  | OCR (oxygen consumption rate) (in vitro liver tissue): decreased OCR values, but non-zero values |
| Cc1cc2c(s1)Nc1ccccc1N=C2N1CCN(C)CC1 [Olanzapine] |  |  | DILI presentation (Less toxic comparator) (liver; [2]): No DILI |
| FCCP |  |  | OCR (oxygen consumption rate) (in vitro liver tissue): increases OCR to its maximum level |
| Mipomersen |  |  | DILI presentation (Liver toxicant) (liver; in vivo): ALT elevations; Mechanism of toxicity (liver; in vivo): Lipid |
| Cc1ccc(C(=O)c2cc(O)c(O)c([N+](=O)[O-])c2)cc1 [Tolcapone] | ALT elevations; | Reactive |  |
| C=C[C@@H]1C[C@]1(NC(=O)[C@@H]1C[C@@H](Oc2ncc(OC)c3ccc(Cl)cc23)CN1C(=O)[C@@H](NC(=O)OC(C)(C)C)C(C)(C)C)C(=O)NS(=O)(=O)C1CC1 [Asunaprevir] | ALT elevations |  |  |
| Cc1c(C)c2c(c(C)c1O)CCC(C)(COc1ccc(CC3SC(=O)NC3=O)cc1)O2 (stereo not shown) [Troglitazone] | ALT, bilirubin | Reactive |  |
| CC(c1cc2ccccc2s1)N(O)C(N)=O (stereo not shown) [Zileuton] | ALT elevations | Reactive |  |
| O=c1[nH]c(=O)n([C@@H]2O[C@H](CO)[C@@H](O)[C@@H]2F)cc1I [Fialuridine] | Liver failure | Mitochondrial |  |
| N[C@@H]1[C@H]2CN(c3nc4c(cc3F)c(=O)c(C(=O)O)cn4-c3ccc(F)cc3F)C[C@@H]12 [Trovafloxacin] |  | Immune- | DILI presentation (Liver toxicant) (liver; in vivo): Acute liver |
| Cc1cc2c(cc1CC(=O)c1sccc1S(=O)(=O)Nc1onc(C)c1Cl)OCO2 [Sitaxsentan] | ALT elevations | Reactive |  |
| CCc1nn(CCCN2CCN(c3cccc(Cl)c3)CC2)c(=O)n1CCOc1ccccc1 [Nefazodone] | Liver failure | Reactive |  |
| CN1CCN(C2=Nc3cc(Cl)ccc3Nc3ccccc32)CC1 [Clozapine] |  | Reactive |  |
| CCN(CC)C(=O)/C(C#N)=C/c1cc(O)c(O)c([N+](=O)[O-])c1 [Entacapone] |  |  | DILI presentation (Less toxic comparator) (liver; [2]): Low DILI |
| CC[C@H]1OC(=O)[C@H](C)C(=O)[C@H](C)[C@@H](O[C@@H]2O[C@H](C)C[C@H](N(C)C)[C@H]2O)[C@](C)(OC)C[C@@H](C)C(=O)[C@H](C)[C@H]2N(CCCCn3cnc(-c4cccnc4)c3)C(=O)O[C@]12C [Telithromycin] | ALT elevations | Bile acid |  |
| O=c1[nH]c(=O)n(C2OC(CO)C(O)C2F)cc1I (stereo not shown) [FIRU] |  |  | DILI presentation (Less toxic comparator) (liver; in vivo): No DILI |
| CCc1ccc(CCOc2ccc(CC3SC(=O)NC3=O)cc2)nc1 (stereo not shown) [Pioglitazone] |  |  | DILI presentation (Less toxic comparator) (liver; [2]): Low DILI |
| O=C1CC2(CCCC2)CC(=O)N1CCCCN1CCN(c2ncccn2)CC1 [Buspirone] |  |  | Comparator characteristic (liver; BSEP / mitochondrial toxicity relative to the paired liver toxicant): Less BSEP; DILI presentation (Less toxic comparator) (liver; [2]): No/low |
